For 34 compounds, melting point results are on record in patent US20080167314A1, “Condensed Imidazole Compound And Use Thereof” (priority 2004, published 2008).

`Cc1cccc(-c2nc3cccnn3c2-c2ccnc(NCCO)c2)c1` [Example Compound 6-5, 2-({4-[2-(3-methylphenyl)imidazo[1,2-b]pyridazin-3-yl]pyridin-2-yl}amino)ethanol] showed a melting point of 176 to 177 °C.

As to `Cc1cccc(-c2nc3cccnn3c2-c2ccnc(NC(=O)N3CCCCC3)c2)c1` [Example 31, N-{4-[2-(3-Methylphenyl)imidazo[1,2-b]pyridazin-3-yl]pyridin-2-yl}piperidine-1-carboxamide], the melting point lay in the range of 173 to 175 °C.

As to `Cc1cc(NC(=O)Nc2cc(-c3c(-c4ccc(F)c(C)c4)nc4cccnn34)ccn2)[nH]n1` [Example 51-8, N-{4-[2-(4-fluoro-3-methylphenyl)imidazo[1,2-b]pyridazin-3-yl]pyridin-2-yl}-N′-(3-methyl-1H-pyrazol-5-yl)urea], the melting point was in the range of 239 to 240 °C.

`Cc1cccc(-c2nc3cccnn3c2-c2ccnc(NCCN3CCCCC3)c2)c1` [Example Compound 6-14, 4-[2-(3-methylphenyl)imidazo[1,2-b]pyridazin-3-yl]-N-[2-(piperidin-1-yl)ethyl]pyridin-2-amine] gave a melting point of 143 to 144 °C.

Consider `CCN(CC)CCNc1cc(-c2c(-c3cccc(C)c3)nc3cccnn23)ccn1` [Example Compound 6-19, N,N-diethyl-N′-{4-[2-(3-methylphenyl)imidazo[1,2-b]pyridazin-3-yl]pyridin-2-yl}ethane-1,2-diamine], for which the melting point is 97 to 98 °C.

On to `Cc1cccc(-c2nc3ccc(S(C)(=O)=O)nn3c2-c2ccnc(NC3CCCCC3)c2)c1` [Example 11, N-Cyclohexyl-4-[2-(3-methylphenyl)-6-(methylsulfonyl)imidazo[1,2-b]pyridazin-3-yl]pyridin-2-amine], for which the melting point fell in the range of 196 to 197 °C.

For the compound `Cc1cc(-c2nc3cccnn3c2-c2ccnc(NC(N)=O)c2)ccc1F` [Example 51-9, N-{4-[2-(4-fluoro-3-methylphenyl)imidazo[1,2-b]pyridazin-3-yl]pyridin-2-yl}urea], the melting point was in the range of 254 to 255 °C.

In turn, `Cc1cc(-c2nc3cccnn3c2-c2ccnc(NC(=O)NCCS(C)(=O)=O)c2)ccc1F` [Example 51-5, N-{4-[2-(4-fluoro-3-methylphenyl)imidazo[1,2-b]pyridazin-3-yl]pyridin-2-yl}-N′-[2-(methylsulfonyl)ethyl]urea] showed a melting point of 204 to 205 °C.

The compound `Cc1ccc(C(=O)Nc2nccc(-c3c(-c4cccc(C)c4)nc4cccnn34)n2)cc1` [Example 44-1, 4-methyl-N-{4-[2-(3-methylphenyl)imidazo[1,2-b]pyridazin-3-yl]pyrimidin-2-yl}benzamide] gave a melting point of 211 to 212 °C.

Turning to `CSc1ccc2nc(-c3ccc(F)c(C)c3)c(-c3ccnc(NC(=O)NC(C)C)c3)n2n1` [Example 54, N-{4-[2-(4-Fluoro-3-methylphenyl)-6-(methylthio)imidazo[1,2-b]pyridazin-3-yl]pyridin-2-yl}-N′-isopropylurea], the melting point fell in the range of 241 to 242 °C.

As for `Cc1cncc(C(=O)Nc2cc(-c3c(-c4ccc(F)c(C)c4)nc4cccnn34)ccn2)c1` [Example 42-30, N-{4-[2-(4-fluoro-3-methylphenyl)imidazo[1,2-b]pyridazin-3-yl]pyridin-2-yl}-5-methylnicotinamide], the melting point fell in the range of 238 to 240 °C.

Consider `Cc1cccc(-c2nc3cccnn3c2-c2ccnc(N(C(=O)C3CC3)C(=O)C3CC3)c2)c1` [Example Compound 23-1, N-(cyclopropylcarbonyl)-N-{4-[2-(3-methylphenyl)imidazo[1,2-b]pyridazin-3-yl]pyridin-2-yl}cyclopropanecarboxamide], for which the melting point lay within 173 to 175 °C.

For `Cc1cc(-c2nc3cccnn3c2-c2ccnc(NC(=O)CCS(C)(=O)=O)c2)ccc1F` [Example 56, N-{4-[2-(4-Fluoro-3-methylphenyl)imidazo[1,2-b]pyridazin-3-yl]pyridin-2-yl}-3-(methylsulfonyl)propanamide], the melting point lay within 227 to 228 °C.

For the compound `Cc1cc(-c2nc3cccnn3c2-c2ccnc(NC(=O)c3cncc(Cl)c3)c2)ccc1F` [Example 42-28, 5-chloro-N-{4-[2-(4-fluoro-3-methylphenyl)imidazo[1,2-b]pyridazin-3-yl]pyridin-2-yl}nicotinamide], the melting point was 252 to 254 °C.

With `CCNC(=O)Nc1cc(-c2c(-c3ccc(Cl)cc3)nc3cccnn23)ccn1` [Example Compound 28-8, N-{4-[2-(4-chlorophenyl)imidazo[1,2-b]pyridazin-3-yl]pyridin-2-yl}-N′-ethylurea], the melting point lay within 223 to 224 °C.

Compound `CCC(=O)Nc1cc(-c2c(-c3cccc(Cl)c3)nc3cccnn23)ccn1` [Example Compound 21-7, N-{4-[2-(3-chlorophenyl)imidazo[1,2-b]pyridazin-3-yl]pyridin-2-yl}propanamide] yielded a melting point of 192 to 193 °C.

`Cc1cccc(-c2nc3cccnn3c2-c2ccnc(NC(=O)N3CCc4ccccc4C3)c2)c1` [Example Compound 32-2, N-{4-[2-(3-methylphenyl)imidazo[1,2-b]pyridazin-3-yl]pyridin-2-yl}-3,4-dihydroisoquinoline-2-(1H)carboxamide]: the melting point lay in the range of 122 to 124 °C.

Consider `CNC(=O)Nc1cc(-c2c(-c3ccc(F)c(C)c3)nc3cccnn23)ccn1` [Example 47-1, N-{4-[2-(4-fluoro-3-methylphenyl)imidazo[1,2-b]pyridazin-3-yl]pyridin-2-yl}-N′-methylurea], for which the melting point fell in the range of 225 to 227 °C.

In the case of `Cc1cccc(-c2nc3cccnn3c2-c2ccnc(NC3CCCCC3)c2)c1` [Example Compound 6-1, N-cyclohexyl-4-[2-(3-methylphenyl)imidazo[1,2-b]pyridazin-3-yl]pyridin-2-amine], the melting point lay within 169 to 170 °C.

The compound `CSc1ccc(C(=O)Nc2cc(-c3c(-c4ccc(F)c(C)c4)nc4cccnn34)ccn2)cc1` [Example 42-9, N-{4-[2-(4-fluoro-3-methylphenyl)imidazo[1,2-b]pyridazin-3-yl]pyridin-2-yl}-4-(methylthio)benzamide] came in with a melting point of 191 to 192 °C.

Compound `Nc1cc(-c2c(-c3cccc(Cl)c3)nc3ccc(Cl)nn23)ccn1` [Example Compound 13-1, 4-[6-chloro-2-(3-chlorophenyl)imidazo[1,2-b]pyridazin-3-yl]pyridin-2-amine] came in with a melting point of 268 to 269 °C.

Regarding `Cc1cccc(-c2nc3cccnn3c2-c2ccnc(NC(=O)c3cccc(F)c3)c2)c1` [Example Compound 20-4, 3-fluoro-N-{4-[2-(3-methylphenyl)imidazo[1,2-b]pyridazin-3-yl]pyridin-2-yl}benzamide], the melting point lay within 204 to 205 °C.

The compound `Cc1cc(-c2nc3cccnn3c2-c2ccnc(NC(=O)c3ccc(N(C)C)cc3)c2)ccc1F` [Example 42-10, 4-(dimethylamino)-N-{4-[2-(4-fluoro-3-methylphenyl)imidazo[1,2-b]pyridazin-3-yl]pyridin-2-yl}benzamide] gave a melting point of 245 to 246 °C.

`Cc1cc(-c2nc3cccnn3c2-c2ccnc(NC(=O)c3cccnc3C)c2)ccc1F` [Example 42-29, N-{4-[2-(4-fluoro-3-methylphenyl)imidazo[1,2-b]pyridazin-3-yl]pyridin-2-yl}-2-methylnicotinamide] had a melting point of 258 to 259 °C.

As to `COc1ccccc1Nc1cc(-c2c(-c3cccc(C)c3)nc3cccnn23)ccn1` [Example Compound 6-6, N-(2-methoxyphenyl)-4-[2-(3-methylphenyl)imidazo[1,2-b]pyridazin-3-yl]pyridin-2-amine], the melting point lay in the range of 157 to 158 °C.

As for `CCCNC(=O)Nc1cc(-c2c(-c3ccc(F)cc3)nc3cccnn23)ccn1` [Example Compound 28-9, N-{4-[2-(4-fluorophenyl)imidazo[1,2-b]pyridazin-3-yl]pyridin-2-yl}-N′-propylurea], the melting point was 219 to 220 °C.

In turn, `Cc1cc(-c2nc3cccnn3c2-c2ccnc(NC(=O)c3ccc(Cl)cc3)c2)ccc1F` [Example Compound 21-17, 4-chloro-N-{4-[2-(4-fluoro-3-methylphenyl)imidazo[1,2-b]pyridazin-3-yl]pyridin-2-yl}benzamide] returned a melting point of 207 to 209 °C.

As to `Cc1cccc(-c2nc3cccnn3c2-c2ccnc(NC(=O)NC3CCOCC3)c2)c1` [Example 52, N-{4-[2-(3-Methylphenyl)imidazo[1,2-b]pyridazin-3-yl]pyridin-2-yl}-N′-(tetrahydro-2H-pyran-4-yl)urea], the melting point came to 222 °C.

In turn, `Cc1cc(-c2nc3cccnn3c2-c2ccnc(NC(=O)NC(C)(C)C)c2)ccc1F` [Example 47-2, N-(tert-butyl)-N′-{4-[2-(4-fluoro-3-methylphenyl)imidazo[1,2-b]pyridazin-3-yl]pyridin-2-yl}urea] came in with a melting point of 234 to 235 °C.

As for `CCCNC(=O)Nc1cc(-c2c(-c3ccc(F)c(C)c3)nc3cccnn23)ccn1` [Example Compound 28-4, N-{4-[2-(4-fluoro-3-methylphenyl)imidazo[1,2-b]pyridazin-3-yl]pyridin-2-yl}-N′-propylurea], the melting point lay within 231 to 232 °C.

In turn, `CCNC(=O)Nc1cc(-c2c(-c3ccc(F)c(C)c3)nc3cc(C(C)(C)C)cnn23)ccn1` [Example 48-4, N-{4-[7-tert-butyl-2-(4-fluoro-3-methylphenyl)imidazo[1,2-b]pyridazin-3-yl]-2-pyridyl}-N′-ethylurea] showed a melting point of 212 to 213 °C.

Consider `COc1ccc(C(=O)Nc2cc(-c3c(-c4cccc(Cl)c4)nc4cccnn34)ccn2)cc1` [Example Compound 21-3, N-{4-[2-(3-chlorophenyl)imidazo[1,2-b]pyridazin-3-yl]pyridin-2-yl}-4-methoxybenzamide], for which the melting point fell in the range of 223 to 224 °C.

`COc1cc(Cl)nn2c(-c3ccnc(N)c3)c(-c3ccc(F)c(C)c3)nc12` [Example Compound 36-3, 4-[6-chloro-2-(4-fluoro-3-methylphenyl)-8-methoxyimidazo[1,2-b]pyridazin-3-yl]-2-pyridylamine] registered a melting point of 200 to 201 °C.

Take `Cc1cc(-c2nc3c(C)cc(Cl)nn3c2-c2ccnc(N)c2)ccc1F` [Example Compound 36-1, 4-[6-chloro-2-(4-fluoro-3-methylphenyl)-8-methylimidazo[1,2-b]pyridazin-3-yl]-2-pyridylamine]: the melting point lay in the range of 218 to 219 °C.
